For 21 compounds, IC50 results are on record in patent US9169241B2, “Quinolinyloxyphenylsulfonamides” (Max-Planck-Gesellschaft Zur Forderung der Wissenschaften …, priority 2009, dated 2015).

As a reminder, the pIC50 is the IC50 on a negative log10 scale, so that one unit is a factor of ten. Read a high pIC50 as a small IC50.

Assay [1] relates to Hs578T. In words: Wound healing migration assay. In kind it is cell-based. The conditions noted are these: Homo sapiens, Hs-578T; HS578T cell line; Table Ib. The essentials:
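Compound exposure at 12.5, 6.25 and 3.125 μM, with DMSO control, on scratch-wounded monolayers (150000 cells/24 well, overnight). Wound closure imaged by microscopy, fixed with crystal violet after 48 h or 72 h depending on cell line; IC50 is the concentration giving 50% wound size between t0 and t48/t72.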

In assay [2] the target is T1, wild type AXL (wtAXL) receptor tyrosine kinase (Homo sapiens, UniProt P30530).
T1 construct: WtAXL cDNA was cloned into vector pLXSN(ESK) and transfected into Phoenix E packaging cells; expressed in transfected cells; host or cells: NIH3T3 N7 (mouse fibroblasts), retrovirally infected, clone 22
T1 sequence (P30530 26-894): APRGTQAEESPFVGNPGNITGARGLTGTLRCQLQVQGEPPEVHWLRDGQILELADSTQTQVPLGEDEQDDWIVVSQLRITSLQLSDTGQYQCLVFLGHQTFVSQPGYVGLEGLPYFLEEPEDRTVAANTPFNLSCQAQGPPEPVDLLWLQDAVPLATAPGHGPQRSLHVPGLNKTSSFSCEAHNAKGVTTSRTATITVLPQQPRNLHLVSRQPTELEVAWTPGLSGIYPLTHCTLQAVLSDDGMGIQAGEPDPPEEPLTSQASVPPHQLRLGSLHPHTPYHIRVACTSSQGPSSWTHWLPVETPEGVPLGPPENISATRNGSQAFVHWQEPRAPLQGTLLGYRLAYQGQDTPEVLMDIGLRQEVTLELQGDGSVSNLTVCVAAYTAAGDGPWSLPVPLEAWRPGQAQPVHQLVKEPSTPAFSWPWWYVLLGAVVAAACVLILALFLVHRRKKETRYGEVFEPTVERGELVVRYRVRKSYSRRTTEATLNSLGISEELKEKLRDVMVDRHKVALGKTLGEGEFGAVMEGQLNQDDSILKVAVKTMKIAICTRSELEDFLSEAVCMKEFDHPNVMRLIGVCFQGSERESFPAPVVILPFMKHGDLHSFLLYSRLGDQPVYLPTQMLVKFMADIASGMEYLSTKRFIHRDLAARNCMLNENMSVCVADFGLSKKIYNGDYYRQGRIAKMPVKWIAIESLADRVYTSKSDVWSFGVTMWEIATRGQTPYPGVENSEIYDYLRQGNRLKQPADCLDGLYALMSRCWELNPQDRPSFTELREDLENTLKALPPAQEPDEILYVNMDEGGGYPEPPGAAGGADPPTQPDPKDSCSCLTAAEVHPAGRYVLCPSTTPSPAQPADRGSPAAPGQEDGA
In words: NIH-3T3-AXL cellular kinase assay (pY-AXL-ELISA). In kind it is cell-based. The conditions noted are these: NIH-3T3-AXL (clone 22) cells, serum depleted, compounds 1 h; Table Ia. The essentials:
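Phospho-AXL was quantified by ELISA in lysates (4G10-biotin, streptavidin-AP, AttoPhos, 430/560 nm read at 90 min). The cells were monoclonal NIH3T3 lines stably transduced with human wtAXL, exposed to serial compound dilutions for 1 h before lysis.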
For orientation: An ELISA detects its analyte on a solid surface through an enzyme-linked reagent.

pIC50: −log10 of the molar value.

Take `COc1cc2c(Oc3ccc(NS(=O)(=O)c4cccc5ccccc45)cc3F)ccnc2cc1OCCCN1CCCC(C)C1` (stereo not drawn) [Example 58, Naphthalene-1-sulfonic acid (3-fluoro-4-{6-methoxy-7-[3-(3-methyl-piperidin-1-yl)-propoxy]-quinolin-4-yloxy}-phenyl)-amide]: the pIC50 in assay [1] was at least 4.90; in assay [2], over 6.30.
Take `COc1cc2c(Oc3ccc(NS(=O)(=O)c4cccc(Oc5ccccc5)c4)cc3F)ccnc2cc1OCCCN1CCCC(C)C1` (stereo not drawn) [Example 59, N-(3-Fluoro-4-{6-methoxy-7-[3-(3-methyl-piperidin-1-yl)-propoxy]-quinolin-4-yloxy}-phenyl)-3-phenoxy-benzenesulfonamide]: the pIC50 in assay [1] is at least 4.90; in assay [2], over 6.30.
Turning to `COc1cc2c(Oc3ccc(NS(=O)(=O)c4ccc(Cl)s4)cc3F)ccnc2cc1OCCCN1CCCC(C)C1` (stereo not drawn) [Example 63, 5-Chloro-thiophene-2-sulfonic acid (3-fluoro-4-{6-methoxy-7-[3-(3-methyl-piperidin-1-yl)-propoxy]-quinolin-4-yloxy}-phenyl)-amide], the pIC50 in assay [1] was at least 4.90; in assay [2], over 6.30.
In the case of `COC(=O)c1sccc1S(=O)(=O)Nc1ccc(Oc2ccnc3cc(OCCCN4CCCC(C)C4)c(OC)cc23)c(F)c1` (stereo not drawn) [Example 66, 3-(3-Fluoro-4-{6-methoxy-7-[3-(3-methyl-piperidin-1-yl)-propoxy]-quinolin-4-yloxy}-phenylsulfamoyl)-thiophene-2-carboxylic acid methyl ester], the pIC50 in assay [1] was at least 4.90; in assay [2], over 6.30.
As for `COc1cc2c(Oc3ccc(NS(=O)(=O)c4c(F)cccc4F)cc3F)ccnc2cc1OCCCN1CCOCC1` [Example 77, 2,6-Difluoro-N-{3-fluoro-4-[6-methoxy-7-(3-morpholin-4-yl-propoxy)-quinolin-4-yloxy]-phenyl}-benzenesulfonamide], the pIC50 in assay [1] is at least 4.90; in assay [2] it was over 6.30.
For `COc1cc2c(Oc3ccc(NS(=O)(=O)c4ccccc4OC(F)(F)F)cc3F)ccnc2cc1OCCCN1CCCCC1` [Example 78, N-{3-Fluoro-4-[6-methoxy-7-(3-piperidin-1-yl-propoxy)-quinolin-4-yloxy]-phenyl}-2-trifluoromethoxy-benzenesulfonamide], the values for the pIC50 in assay [1] and in assay [2] were at least 4.90 and over 6.30, respectively.
On to `COc1cc2c(Oc3ccc(NS(=O)(=O)c4ccccc4F)cc3F)ccnc2cc1OCCN1CCOCC1` [Example 81, 2-Fluoro-N-{3-fluoro-4-[6-methoxy-7-(2-morpholin-4-yl-ethoxy)-quinolin-4-yloxy]-phenyl}-benzenesulfonamide], for which the figures for the negative logarithm of the IC50 (pIC50) in assay [1] and in assay [2] were 4.30 to 4.90 and over 6.30, respectively.
As for `COc1cc2c(Oc3ccc(NS(=O)(=O)c4c(F)cccc4F)cc3F)ccnc2cc1OCCN1CCOCC1` [Example 82, 2,6-Difluoro-N-{3-fluoro-4-[6-methoxy-7-(2-morpholin-4-yl-ethoxy)-quinolin-4-yloxy]-phenyl}-benzenesulfonamide], the results for the pIC50 in assay [1] and in assay [2] were 4.30 to 4.90 and over 6.30, respectively.
For the compound `COc1cc2c(Oc3ccc(NS(=O)(=O)c4ccccc4C(F)(F)F)cc3Cl)ccnc2cc1OCCCN1CCN(C)CC1` [Example 87, N-(3-Chloro-4-{6-methoxy-7-[3-(4-methyl-piperazin-1-yl)-propoxy]-quinolin-4-yloxy}-phenyl)-2-trifluoromethyl-benzenesulfonamide], the figures for the pIC50 in assay [1] and in assay [2] were at least 4.90 and over 6.30, respectively.
For the compound `COc1cc2c(Oc3ccc(NS(=O)(=O)c4c(Cl)cccc4Cl)cc3F)ccnc2cc1OCCN1CCOCC1` [Example 104, 2,6-Dichloro-N-{3-fluoro-4-[6-methoxy-7-(2-morpholin-4-yl-ethoxy)-quinolin-4-yloxy]-phenyl}-benzenesulfonamide], the pIC50 in assay [1] is at least 4.90; in assay [2], over 6.30.
As to `COc1cc2c(Oc3ccc(NS(=O)(=O)c4c(F)cccc4F)cc3F)ccnc2cc1OCCCN1CCN(C)CC1` [Example 110, 2,6-Difluoro-N-(3-fluoro-4-{6-methoxy-7-[3-(4-methyl-piperazin-1-yl)-propoxy]-quinolin-4-yloxy}-phenyl)-benzenesulfonamide], the pIC50 in assay [1] is at least 4.90; in assay [2] it was over 6.30.
`COc1cc2c(Oc3ccc(NS(=O)(=O)c4cc(F)ccc4F)cc3Cl)ccnc2cc1OCCCN1CCN(C)CC1` [Example 112, N-(3-Chloro-4-{6-methoxy-7-[3-(4-methyl-piperazin-1-yl)-propoxy]-quinolin-4-yloxy}-phenyl)-2,5-difluoro-benzenesulfonamide]: the negative logarithm of the IC50 (pIC50) in assay [1] is at least 4.90; in assay [2], over 6.30.
`COc1cc2c(Oc3ccc(NS(=O)(=O)c4c(Cl)cccc4Cl)cc3Cl)ccnc2cc1OCCCN1CCN(C)CC1` [Example 119, 2,6-Dichloro-N-(3-chloro-4-{6-methoxy-7-[3-(4-methyl-piperazin-1-yl)-propoxy]-quinolin-4-yloxy}-phenyl)-benzenesulfonamide]: the values for the pIC50 in assay [1] and in assay [2] were at least 4.90 and over 6.30, respectively.
Turning to `COC(=O)c1sccc1S(=O)(=O)Nc1ccc(Oc2ccnc3cc(OCCCN4CCCCC4)c(OC)cc23)c(F)c1` [Example 155, 3-{3-Fluoro-4-[6-methoxy-7-(3-piperidin-1-yl-propoxy)-quinolin-4-yloxy]-phenylsulfamoyl}-thiophene-2-carboxylic acid methyl ester], the pIC50 in assay [1] was at least 4.90; in assay [2], over 6.30.
On to `COC(=O)c1sccc1S(=O)(=O)Nc1ccc(Oc2ccnc3cc(OCCCN4CCC(C)CC4)c(OC)cc23)c(F)c1` [Example 156, 3-(3-Fluoro-4-{6-methoxy-7-[3-(4-methyl-piperidin-1-yl)-propoxy]-quinolin-4-yloxy}-phenylsulfamoyl)-thiophene-2-carboxylic acid methyl ester], for which the pIC50 in assay [1] was at least 4.90; in assay [2] it was over 6.30.
As for `COC(=O)c1sccc1S(=O)(=O)Nc1ccc(Oc2ccnc3cc(OCCCN4CCOCC4)c(OC)cc23)c(F)c1` [Example 157, 3-{3-Fluoro-4-[6-methoxy-7-(3-morpholin-4-yl-propoxy)-quinolin-4-yloxy]-phenylsulfamoyl}-thiophene-2-carboxylic acid methyl ester], the figures for the pIC50 in assay [1] and in assay [2] were at least 4.90 and over 6.30, respectively.
As for `COC(=O)c1sccc1S(=O)(=O)Nc1ccc(Oc2ccnc3cc(OCCCN4CCN(C)CC4)c(OC)cc23)c(F)c1` [Example 158, 3-(3-Fluoro-4-{6-methoxy-7-[3-(4-methyl-piperazin-1-yl)-propoxy]-quinolin-4-yloxy}-phenylsulfamoyl)-thiophene-2-carboxylic acid methyl ester], the pIC50 is at least 4.90 in assay [1] and over 6.30 in assay [2].
Take `COc1cc2c(Oc3ccc(NS(=O)(=O)c4c(F)cccc4F)cc3F)ccnc2cc1OCCCN(C)C` [Example 178, N-{4-[7-(3-Dimethylamino-propoxy)-6-methoxy-quinolin-4-yloxy]-3-fluoro-phenyl}-2,6-difluoro-benzenesulfonamide]: the pIC50 in assay [1] was 4.30 to 4.90; in assay [2], over 6.30.
For `COc1cc2c(Oc3ccc(NS(=O)(=O)c4ccccc4OC(F)(F)F)cc3F)ccnc2cc1OCCCN(C)C` [Example 179, N-{4-[7-(3-Dimethylamino-propoxy)-6-methoxy-quinolin-4-yloxy]-3-fluoro-phenyl}-2-trifluoromethoxy-benzenesulfonamide], the pIC50 in assay [1] is at least 4.90; in assay [2], over 6.30.
Consider `COc1cc2c(Oc3ccc(NS(=O)(=O)c4c(Cl)cccc4Cl)cc3F)ccnc2cc1OCCCN(C)C` [Example 181, 2,6-Dichloro-N-{4-[7-(3-dimethylamino-propoxy)-6-methoxy-quinolin-4-yloxy]-3-fluoro-phenyl}-benzenesulfonamide], for which the values for the pIC50 in assay [1] and in assay [2] were at least 4.90 and over 6.30, respectively.
As to `COC(=O)c1sccc1S(=O)(=O)Nc1ccc(Oc2ccnc3cc(OCCCN(C)C)c(OC)cc23)c(F)c1` [Example 184, 3-{4-[7-(3-Dimethylamino-propoxy)-6-methoxy-quinolin-4-yloxy]-3-fluoro-phenylsulfamoyl}-thiophene-2-carboxylic acid methyl ester], the pIC50 in assay [1] was at least 4.90; in assay [2] it was over 6.30.
